Literature values as cited in patent publication US20230190651A1, “Topical Aerosol Foams” (ARCUTIS BIOTHERAPEUTICS, INC., priority 2021, published 2023).
Counter-ions that a name gives are not always drawn.

| Molecule | Water Solubility |
| --- | --- |
| O=C(O)CCCCCCCC(=O)O [azelaic acid] | 2,140 mg/liter |
| C=C1/C(=C\C=C2/CCC[C@]3(C)[C@@H]([C@H](C)/C=C/[C@@H](O)C4CC4)CC[C@@H]23)C[C@@H](O)C[C@@H]1O [calcipotriene] | 13.5 mg/L |
| CCC[C@@H]1C[C@@H](C(=O)N[C@@H]([C@H]2O[C@H](SC)[C@H](OP(=O)(O)O)[C@@H](O)[C@H]2O)[C@H](C)Cl)N(C)C1 [clindamycin phosphate] | 250,000 mg/liter |
| CCC(=O)O[C@]1(C(=O)CCl)[C@@H](C)C[C@H]2[C@@H]3CCC4=CC(=O)C=C[C@]4(C)[C@@]3(F)[C@@H](O)C[C@@]21C [clobetasol propionate] | 4 mg/L |
| CC1(C)O[C@@H]2C[C@H]3[C@@H]4CCC5=CC(=O)C=C[C@]5(C)[C@H]4[C@@H](O)C[C@]3(C)[C@]2(C(=O)CO)O1 [desonide] | 59 mg/L |
| CCC(=O)O[C@]1(C(=O)CCl)[C@@H](C)C[C@H]2[C@@H]3C[C@H](F)C4=CC(=O)C=C[C@]4(C)[C@@]3(F)[C@@H](O)C[C@@]21C [halobetasol propionate] | 14 mg/L |
| CC(=O)N1CCN(c2ccc(OCC3COC(Cn4ccnc4)(c4ccc(Cl)cc4Cl)O3)cc2)CC1 (stereo not drawn) [ketoconazole] | 0.09 mg/L |
| Cc1cc(C(C)(C)C)c(O)c(C)c1CC1=NCCN1 [oxymetazoline hydrochloride] | 145,000 mg/liter |
| O=C(Nc1c(Cl)cncc1Cl)c1ccc(OC(F)F)c(OCC2CC2)c1 [roflumilast] | 0.54 mg/L |
| CCOC(=O)c1ccc(C#Cc2ccc3c(c2)C(C)(C)CCS3)nc1 [tazarotene] | 32 mg/L |
| NC(N)=O [urea] | 1,190,000 mg/liter |
| ivermectin | 4 mg/L |
